In ChEMBL document CHEMBL5113454, “Design, synthesis, and bioactivity study on Lissodendrins B derivatives as PARP1 inhibitor” (Bioorg Med Chem, 2022):
pIC50: −log10 of the molar value. Activity calls are given as the source filed them. The calls are words filed in the database; no cut-off is given here.

How the values were obtained:
[1] = system: HCC1937; test: Cell cycle arrest in BRCA1-deficient human HCC1937 cells assessed as accumulation at G1 phase at 15 uM measured after 24 hrs by propidium iodide (PI) based FACS analysis (reference value: 31.6%); type: functional
[2] = system: MDA-MB-436; test: Cell cycle arrest in BRCA1-deficient human MDA-MB-436 cells assessed as accumulation at S phase at 5 uM measured after 24 hrs by propidium iodide (PI) based FACS analysis (reference value: 27.4%); type: functional
[3] = system: HCC1937; test: Cell cycle arrest in BRCA1-deficient human HCC1937 cells assessed as accumulation at S phase at 1 uM measured after 24 hrs by propidium iodide (PI) based FACS analysis (reference value: 26%); type: functional
[4] = system: HCC1937; test: Cell cycle arrest in BRCA1-deficient human HCC1937 cells assessed as accumulation at G2 phase at 1 uM measured after 24 hrs by propidium iodide (PI) based FACS analysis (reference value: 13.5%); type: functional
[5] = system: HCC1937; test: Cell cycle arrest in BRCA1-deficient human HCC1937 cells assessed as accumulation at G2 phase at 0.1 uM measured after 24 hrs by propidium iodide (PI) based FACS analysis (reference value: 13.5%); type: functional
[6] = system: HCC1937; test: Antiproliferative activity against human HCC1937 cells after 7 days by resazurin reduction assay; conditions: HCC1937, 168 h
[7] = system: MDA-MB-436; test: Cell cycle arrest in BRCA1-deficient human MDA-MB-436 cells assessed as accumulation at G2 phase at 1 uM measured after 24 hrs by propidium iodide (PI) based FACS analysis (reference value: 17.6%); type: functional
[8] = system: MDA-MB-436; test: Cell cycle arrest in BRCA1-deficient human MDA-MB-436 cells assessed as accumulation at S phase at 1 uM measured after 24 hrs by propidium iodide (PI) based FACS analysis (reference value: 27.4%); type: functional
[9] = system: MDA-MB-436; test: Antiproliferative activity against human MDA-MB-436 cells after 7 days by resazurin reduction assay; conditions: MDA-MB-436, 168 h
[10] = system: MCF7; test: Induction of DNA damage in human MCF7 cells expressing BRCA1 at 0.1 to 15 uM assessed as increase in accumulation of DNA double-strand breaks measuring gamma-H2AX levels by Western blot analysis; type: functional, cell-based; conditions: dose 0.1-15 µM
[11] = system: HCC1937; test: Cell cycle arrest in BRCA1-deficient human HCC1937 cells assessed as accumulation at G2 phase at 15 uM measured after 24 hrs by propidium iodide (PI) based FACS analysis (reference value: 13.5%); type: functional
[12] = system: HCC1937; test: Cell cycle arrest in BRCA1-deficient human HCC1937 cells assessed as accumulation at S phase at 5 uM measured after 24 hrs by propidium iodide (PI) based FACS analysis (reference value: 26%); type: functional
[13] = system: HCC1937; test: Cell cycle arrest in BRCA1-deficient human HCC1937 cells assessed as accumulation at S phase at 15 uM measured after 24 hrs by propidium iodide (PI) based FACS analysis (reference value: 26%); type: functional
[14] = system: MDA-MB-436; test: Cell cycle arrest in BRCA1-deficient human MDA-MB-436 cells assessed as accumulation at G2 phase at 15 uM measured after 24 hrs by propidium iodide (PI) based FACS analysis (reference value: 17.6%); type: functional
[15] = system: MDA-MB-436; test: Cell cycle arrest in BRCA1-deficient human MDA-MB-436 cells assessed as accumulation at G1 phase at 5 uM measured after 24 hrs by propidium iodide (PI) based FACS analysis (reference value: 26.7%); type: functional
[16] = system: MDA-MB-436; test: Cell cycle arrest in BRCA1-deficient human MDA-MB-436 cells assessed as accumulation at S phase at 15 uM measured after 24 hrs by propidium iodide (PI) based FACS analysis (reference value: 27.4%); type: functional
[17] = system: HCC1937; test: Cell cycle arrest in BRCA1-deficient human HCC1937 cells assessed as accumulation at S phase at 0.1 uM measured after 24 hrs by propidium iodide (PI) based FACS analysis (reference value: 26%); type: functional
[18] = system: MDA-MB-436; test: Cell cycle arrest in BRCA1-deficient human MDA-MB-436 cells assessed as accumulation at S phase at 0.1 uM measured after 24 hrs by propidium iodide (PI) based FACS analysis (reference value: 27.4%); type: functional
[19] = system: MDA-MB-436; test: Induction of apoptosis in BRCA1-deficient human MDA-MB-436 cells at 0.1 to 15 uM measured after 24 hrs by Annexin V/propidium iodide (PI) based FACS analysis; type: functional, cell-based; conditions: dose 0.1-15 µM
[20] = system: MDA-MB-436; test: Cell cycle arrest in BRCA1-deficient human MDA-MB-436 cells assessed as accumulation at G1 phase at 1 uM measured after 24 hrs by propidium iodide (PI) based FACS analysis (reference value: 26.7%); type: functional
[21] = system: HCC1937; test: Cell cycle arrest in BRCA1-deficient human HCC1937 cells assessed as accumulation at G2 phase at 5 uM measured after 24 hrs by propidium iodide (PI) based FACS analysis (reference value: 13.5%); type: functional
[22] = system: HCC1937; test: Cell cycle arrest in BRCA1-deficient human HCC1937 cells assessed as accumulation at G1 phase at 5 uM measured after 24 hrs by propidium iodide (PI) based FACS analysis (reference value: 31.6%); type: functional
[23] = system: HCC1937; test: Induction of apoptosis in BRCA1-deficient human HCC1937 cells at 0.1 to 15 uM measured after 24 hrs by Annexin V/propidium iodide (PI) based FACS analysis; type: functional, cell-based; conditions: dose 0.1-15 µM
[24] = system: MDA-MB-436; test: Cell cycle arrest in BRCA1-deficient human MDA-MB-436 cells assessed as accumulation at G1 phase at 15 uM measured after 24 hrs by propidium iodide (PI) based FACS analysis (reference value: 26.7%); type: functional
[25] = system: HCC1937; test: Cell cycle arrest in BRCA1-deficient human HCC1937 cells assessed as accumulation at G1 phase at 0.1 uM measured after 24 hrs by propidium iodide (PI) based FACS analysis (reference value: 31.6%); type: functional
[26] = system: MDA-MB-436; test: Cell cycle arrest in BRCA1-deficient human MDA-MB-436 cells assessed as accumulation at G2 phase at 0.1 uM measured after 24 hrs by propidium iodide (PI) based FACS analysis (reference value: 17.6%); type: functional
[27] = system: MDA-MB-436; test: Cell cycle arrest in BRCA1-deficient human MDA-MB-436 cells assessed as accumulation at G2 phase at 5 uM measured after 24 hrs by propidium iodide (PI) based FACS analysis (reference value: 17.6%); type: functional
[28] = system: MDA-MB-436; test: Cell cycle arrest in BRCA1-deficient human MDA-MB-436 cells assessed as accumulation at G1 phase at 0.1 uM measured after 24 hrs by propidium iodide (PI) based FACS analysis (reference value: 26.7%); type: functional
[29] = system: MDA-MB-436; test: Induction of DNA damage in BRCA1-deficient human MDA-MB-436 cells at 0.1 to 15 uM assessed as increase in accumulation of DNA double-strand breaks measuring gamma-H2AX levels by Western blot analysis; type: functional, cell-based; conditions: dose 0.1-15 µM
[30] = system: HCC1937; test: Cell cycle arrest in BRCA1-deficient human HCC1937 cells assessed as accumulation at G1 phase at 1 uM measured after 24 hrs by propidium iodide (PI) based FACS analysis (reference value: 31.6%); type: functional

With COc1ccc(C(=O)C(=O)c2c(-c3ccc(OC)cc3)nc(NC(=O)CN3CCc4cc(OC)c(OC)cc4C3)n2C)cc1 the Activity [1] was 7%, the Activity [2] was 29.1% and the Activity [3] was 18.7%. The Activity [4] was 21.6%, the Activity [5] was 18.3% and the pIC50 [6] was 4.75. It also gave an Activity [7] of 25.4%, an Activity [8] of 21.5% and a pIC50 [9] of 4.90. For the same compound, the Activity [10] was “Active”, the Activity [11] was 45.9% and the Activity [12] was 23.2%. It also gave an Activity [13] of 17.8%, an Activity [14] of 28.5% and an Activity [15] of 10.4%. For the same compound, the Activity [16] was 33.3%, the Activity [17] was 19.9% and the Activity [18] was 30.2%. The Activity [19] was “Active”, the Activity [20] was 25.1% and the Activity [21] was 22.4%. The Activity [22] was 24.7%, the Activity [23] was “Active” and the Activity [24] was 9.85%. The Activity [25] was 36.6%, the Activity [26] was 17% and the Activity [27] was 32.8%. The Activity [28] was 23.3%, the Activity [29] was “Active” and the Activity [30] was 32.8%.
